Measurements from PMC7708037, “Targeting OGG1 arrests cancer cell proliferation by inducing replication stress” (Nucleic Acids Research, 2020).
“Also recorded” adds a separate entry of the source.

Key:
[1] = tested on: EdU incorporation in A3 cells; experiment: EdU flow cytometry analysis; assay type: cell-based, human; details: 10 μM
Method: At the indicated time points, compound/dox treated cells were incubated in medium containing 10 μM 5-ethynyl-2′-deoxyuridine (EdU) (Thermo Fisher, A10044) for 20 min. Next, cells were fixed in cold 70% ethanol overnight. The azide alkyne Huisgen cycloaddition (‘Click reaction’) was carried out according to the Click-iT EdU Imaging Manual (Thermo Fisher) using various fluorescent dyes: Alexa Fluor® 488 azide (Thermo Fisher, A10266), Alexa Fluor® 647 azide (Thermo Fisher, A10277), or TAMRA azide (Thermo Fisher, T10182), depending on assay conditions. Samples were incubated with Alexa Fluor® 488 Mouse anti-H2AX (pS139) (BD Biosciences, 560445) overnight at 4°C and finally stained with DAPI solution [10 μg/ml DAPI (Sigma, D9542), 0.1 mg/ml RNase A (Thermo Fisher, EN0531), 1% BSA in PBS] for 20 min at room temperature. Measurements were done using a Navios Flow Cytometer (Beckman Coulter). Data was analyzed using Kaluza® Flow Analysis Software (Beckman Coulter).
Supplementary Fig. S7: EdU incorporation in OGG1 perturbed A3 cells. A. Cells harboring the indicated shRNA constructs were treated with doxycycline for 48, 96 and 144 h and pulsed with EdU for 20 minutes before fixation, followed by Alexa-488 conjugation by click chemistry and quantitation by flow cytometry. […] Statistical significance was determined using unpaired, two-sided T-tests (*, […]

[2] = tested on: A3 shNT cells transcriptome; experiment: RNA-sequencing and Gene Set Enrichment Analysis; assay type: cell-based, human; details: 10 μM, 24 h vs DMSO
Method: To extract bulk RNA from cells, the pellets were resuspended in 500 μl of TRI Reagent. After 5 min, 100 μl of chloroform was added and the tubes were shaken by hand for one minute. After 15 min incubation, the samples were centrifuged at 12 000 × g for 15 min at 4°C. 300 μl of the aqueous phase were then mixed thoroughly with 300 μl of Isopropanol, 30 μl of 3M Sodium Acetate and 1 μl of Pellet Paint (Merck 69049) and incubated over night at −20°C. The following day, the samples were centrifuged at 20 000 × g g for 30 min and the pellets washed twice with 600 μl of 70% ethanol. After drying, the pellets were resuspended in 15 μl of Elution Buffer and the concentration of RNA was measured using the Qubit RNA High Sensitivity Assay (Thermo Fischer Q32852) according to the manufacturer's instructions.
After diluting the samples, 2 ng of RNA were used as input for the Smart-seq2 RNA-sequencing protocol ([41]) and 50 bp single ends were sequenced on an Illumina HiSeq 3000 sequencer. Reads were mapped to the ENSEMBL human transcriptome GRCh37 using Tophat 2.1.1 to generate the read count matrix.
Differential expression analysis was performed with DESeq2 (v. 1.26.0) ([42]). […] For Gene Set Enrichment Analysis only genes with a mean expression >5 normalized counts as determined by DESeq2 were taken into account. […]
Figure 6. […] Only genes with a mean normalized count >5 were analyzed. […]

## O=C(Nc1ccc(I)cc1)N1CCC(n2c(=O)[nH]c3c(Br)cccc32)CC1 [TH5487]
[1]
  DNA synthesis (EdU incorporation): only detectable after 96 h treatment; also recorded: DNA synthesis was reduced
[2]
  'DNA replication' gene signature (GSEA): one of the most downregulated gene signatures
